Test results taken from ChEMBL document CHEMBL2440081 (Bioorg Med Chem, 2013).

Molecular target: Carbonic anhydrase 13 (Homo sapiens, UniProt Q8N1Q1)
Sequence (Q8N1Q1 whole entry): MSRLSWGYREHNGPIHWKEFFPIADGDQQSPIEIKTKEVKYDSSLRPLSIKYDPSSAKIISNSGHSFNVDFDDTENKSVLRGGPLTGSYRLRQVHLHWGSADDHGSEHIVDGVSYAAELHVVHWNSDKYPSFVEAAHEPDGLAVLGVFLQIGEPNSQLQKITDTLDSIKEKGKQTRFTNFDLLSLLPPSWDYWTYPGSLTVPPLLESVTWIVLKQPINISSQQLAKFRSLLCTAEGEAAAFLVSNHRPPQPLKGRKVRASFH
Description: Inhibition of human carbonic anhydrase13 preincubated for 15 mins by stopped-flow CO2 hydration assay

CCN[C@H]1CN(CCCOC)S(=O)(=O)c2sc(S(N)(=O)=O)cc21 [BRINZOLAMIDE]
Ki: 11 nM
